# Columns and labels:
# Format in all cases: in vivo
# [1] = test system: Echinochloa crus-galli var. crus-galli; assay: Test Example 3: herbicidal effect by foliage application, Wagner pot (symbol H); conditions: application herbicide amount 320 g/ha
# In short: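 Post-emergence, paddy-type test: seedlings 14 d old in shallow-flooded (0.1–0.5 cm) alluvial soil, 25–30 °C greenhouse. Emulsion diluted to target rate, sprayed on leaves. Read-out: visual effect on each species at 3 weeks, per set criteria.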
# [2] = test system: directly sowed rice plant; assay: Test Example 3: effect on crop by foliage application, Wagner pot (symbol b); conditions: application herbicide amount 320 g/ha
# In short: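 Plants are raised from seed in flooded paddy conditions: water stands 0.1–0.5 cm over alluvial soil, and the pot is kept in a greenhouse at 25–30 °C. Species sown are barnyardgrass (E. crus-galli var. crus-galli), Leptochloa chinensis, Cyperus difformis and rice.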
# [3] = test system: Setaria viridis; assay: Test Example 4: herbicidal effect by soil treatment (symbol G); conditions: for G: Setaria viridis, herbicidal effect grade: 320 g/ha
# In short: (§1)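 Seeds were sown in sterilized diluvial soil, covered with about 1.5 cm of soil, and the soil surface was sprayed with a water-diluted emulsion of the compound at a predetermined rate. Plants grew in a greenhouse at 25° C. to 30° C.; effects were scored visually 3 weeks after application.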
# [4] = test system: Apera spica-venti; assay: Test Example 4: herbicidal effect by soil treatment (symbol L); conditions: for L: Apera spica-venti, herbicidal effect grade: 320 g/ha
# In short: as §1
# [5] = test system: Stellaria media; assay: Test Example 4: herbicidal effect by soil treatment (symbol P); conditions: for P: Stellaria media, herbicidal effect grade: 320 g/ha
# In short: as §1
# [6] = test system: soybean; assay: Test Example 4: effect on crop by soil treatment (symbol d); conditions: for d: soybean, effect grade on crop: 320 g/ha
# In short: (§2)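 The test used sterilized diluvial soil. Seed was set down in spots and overlaid with about 1.5 cm of soil before growth in a greenhouse kept at 25° C. to 30° C.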
# [7] = test system: wheat; assay: Test Example 4: effect on crop by soil treatment (symbol e); conditions: for e: wheat, effect grade on crop: 320 g/ha
# In short: as §2
# [8] = test system: rapeseed; assay: Test Example 4: effect on crop by soil treatment (symbol g); conditions: for g: rapeseed, effect grade on crop: 320 g/ha
# In short: as §2
# [9] = test system: Digitaria ciliaris; assay: Test Example 5: herbicidal effect by foliage application, plastic box (symbol F); conditions: 320 g/ha, 3 weeks after application
# In short: (§3)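 Effect is rated 3 weeks after a foliar spray of water-diluted emulsion concentrate at a predetermined herbicide amount. Plants had grown 14 days in a 25° C. to 30° C. greenhouse from seed in sterilized diluvial soil.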
# [10] = test system: Avena fatua; assay: Test Example 5: herbicidal effect by foliage application, plastic box (symbol I); conditions: 320 g/ha, 3 weeks after application
# In short: as §3
# [11] = test system: Alopecurus myosuroides; assay: Test Example 5: herbicidal effect by foliage application, plastic box (symbol J); conditions: 320 g/ha, 3 weeks after application
# In short: as §3
# [12] = test system: Lolium multiflorum Lam.; assay: Test Example 5: herbicidal effect by foliage application, plastic box (symbol K); conditions: 320 g/ha, 3 weeks after application
# In short: as §3
# [13] = test system: Apera spica-venti; assay: Test Example 5: herbicidal effect by foliage application, plastic box (symbol L); conditions: 320 g/ha, 3 weeks after application
# In short: as §3
# [14] = test system: Chenopodium album; assay: Test Example 5: herbicidal effect by foliage application, plastic box (symbol O); conditions: 320 g/ha, 3 weeks after application
# In short: as §3
# [15] = test system: Stellaria media; assay: Test Example 5: herbicidal effect by foliage application, plastic box (symbol P); conditions: 320 g/ha, 3 weeks after application
# In short: as §3
# [16] = test system: corn; assay: Test Example 5: effect on crop by foliage application, plastic box (symbol c); conditions: 320 g/ha, 3 weeks after application
# In short: (§4)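 Box culture: sterile diluvial soil, seeds spot-sown, ~1.5 cm cover, raised under glass at 25–30° C.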
# [17] = test system: rice plant; assay: Test Example 5: effect on crop by foliage application, plastic box (symbol b); conditions: 320 g/ha, 3 weeks after application
# In short: as §4
# [18] = application herbicide amount 320 g/ha
smiles,measurement,setting,value
CC(=O)CC1CC(O)=C(c2c(C)cc(-c3ncccn3)cc2C)C1=O (stereo not shown) [7-017],"herbicidal effect on H (Echinochloa crus-galli var. crus-galli), grade 0-5",[1],5 (Herbicidal ratio of 90% or more (almost completely withered))
same,"effect on crop b (directly sowed rice plant), grade 0-5",[2],5 (Herbicidal ratio of 90% or more (almost completely withered))
same,"Herbicidal effect grade, G: Setaria viridis",[3]; [18],0 (Herbicidal ratio of 5% or lower (almost no effect))
same,"Herbicidal effect grade, L: Apera spica-venti",[4]; [18],0 (Herbicidal ratio of 5% or lower (almost no effect))
same,"Herbicidal effect grade, P: Stellaria media",[5]; [18],0 (Herbicidal ratio of 5% or lower (almost no effect))
same,"Effect on crop grade, d: soybean",[6]; [18],0 (Herbicidal ratio of 5% or lower (almost no effect))
same,"Effect on crop grade, e: wheat",[7]; [18],0 (Herbicidal ratio of 5% or lower (almost no effect))
same,"Effect on crop grade, g: rapeseed",[8]; [18],0 (Herbicidal ratio of 5% or lower (almost no effect))
same,"F: Digitaria ciliaris, herbicidal effect (criteria of Test Example 1)",[9],5 (Herbicidal ratio of 90% or more (almost completely withered))
same,"I: Avena fatua, herbicidal effect (criteria of Test Example 1)",[10],0 (Herbicidal ratio of 5% or lower (almost no effect))
same,"J: Alopecurus myosuroides, herbicidal effect (criteria of Test Example 1)",[11],2 (Herbicidal ratio of 20% or higher and lower than 40%)
same,"K: Lolium multiflorum Lam., herbicidal effect (criteria of Test Example 1)",[12],3 (Herbicidal ratio of 40% or higher and lower than 70%)
same,"L: Apera spica-venti, herbicidal effect (criteria of Test Example 1)",[13],3 (Herbicidal ratio of 40% or higher and lower than 70%)
same,"O: Chenopodium album, herbicidal effect (criteria of Test Example 1)",[14],0 (Herbicidal ratio of 5% or lower (almost no effect))
same,"P: Stellaria media, herbicidal effect (criteria of Test Example 1)",[15],0 (Herbicidal ratio of 5% or lower (almost no effect))
same,"c: corn, effect on crop (criteria of Test Example 1)",[16],0 (Herbicidal ratio of 5% or lower (almost no effect))
same,"b: directly sowed rice plant, effect on crop (criteria of Test Example 1)",[17],5 (Herbicidal ratio of 90% or more (almost completely withered))
CON=C(CC1CC(O)=C(c2c(C)cc(C#C[Si](C)(C)C)cc2C)C1=O)C(C)C (stereo not shown) [9-005],H (Echinochloa crus-galli var. crus-galli) herbicidal effect grade,[1]; Table 24,5 (Herbicidal ratio of 90% or more (almost completely withered))
same,b (directly sowed rice plant) effect on crop grade,[2]; Table 24,4 (Herbicidal ratio of 70% or higher and lower than 90%)
same,"Herbicidal effect grade, G: Setaria viridis",[3]; [18],0 (Herbicidal ratio of 5% or lower (almost no effect))
same,"Herbicidal effect grade, L: Apera spica-venti",[4]; [18],1 (Herbicidal ratio of 5% or higher and lower than 20%)
same,"Herbicidal effect grade, P: Stellaria media",[5]; [18],0 (Herbicidal ratio of 5% or lower (almost no effect))
same,"Effect on crop grade, d: soybean",[6]; [18],0 (Herbicidal ratio of 5% or lower (almost no effect))
same,"Effect on crop grade, e: wheat",[7]; [18],0 (Herbicidal ratio of 5% or lower (almost no effect))
same,"Effect on crop grade, g: rapeseed",[8]; [18],0 (Herbicidal ratio of 5% or lower (almost no effect))
same,"F: Digitaria ciliaris, herbicidal effect grade",[9],4 (Herbicidal ratio of 70% or higher and lower than 90%)
same,"I: Avena fatua, herbicidal effect grade",[10],5 (Herbicidal ratio of 90% or more (almost completely withered))
same,"J: Alopecurus myosuroides, herbicidal effect grade",[11],4 (Herbicidal ratio of 70% or higher and lower than 90%)
same,"K: Lolium multiflorum Lam., herbicidal effect grade",[12],5 (Herbicidal ratio of 90% or more (almost completely withered))
same,"L: Apera spica-venti, herbicidal effect grade",[13],5 (Herbicidal ratio of 90% or more (almost completely withered))
same,"O: Chenopodium album, herbicidal effect grade",[14],0 (Herbicidal ratio of 5% or lower (almost no effect))
same,"P: Stellaria media, herbicidal effect grade",[15],0 (Herbicidal ratio of 5% or lower (almost no effect))
same,"c: corn, effect on crop grade",[16],3 (Herbicidal ratio of 40% or higher and lower than 70%)
same,"b: directly sowed rice plant, effect on crop grade",[17],4 (Herbicidal ratio of 70% or higher and lower than 90%)
CON=C(C)CC1CC(OC(=O)C2=C(Br)CCC2)=C(c2c(C)cc(C)cc2C)C1=O (stereo not shown) [1-089],"herbicidal effect on H (Echinochloa crus-galli var. crus-galli), grade 0-5",[1],5 (Herbicidal ratio of 90% or more (almost completely withered))
same,"effect on crop b (directly sowed rice plant), grade 0-5",[2],5 (Herbicidal ratio of 90% or more (almost completely withered))
same,"G: Setaria viridis, herbicidal effect grade",[3],5 (Herbicidal ratio of 90% or more (almost completely withered))
same,"L: Apera spica-venti, herbicidal effect grade",[4],5 (Herbicidal ratio of 90% or more (almost completely withered))
same,"P: Stellaria media, herbicidal effect grade",[5],0 (Herbicidal ratio of 5% or lower (almost no effect))
same,"d: soybean, effect grade on crop",[6],0 (Herbicidal ratio of 5% or lower (almost no effect))
same,"e: wheat, effect grade on crop",[7],1 (Herbicidal ratio of 5% or higher and lower than 20%)
same,"g: rapeseed, effect grade on crop",[8],4 (Herbicidal ratio of 70% or higher and lower than 90%)
same,"F: Digitaria ciliaris, herbicidal effect (criteria 0-5)",[9],5 (Herbicidal ratio of 90% or more (almost completely withered))
same,"I: Avena fatua, herbicidal effect (criteria 0-5)",[10],5 (Herbicidal ratio of 90% or more (almost completely withered))
same,"J: Alopecurus myosuroides, herbicidal effect (criteria 0-5)",[11],5 (Herbicidal ratio of 90% or more (almost completely withered))
same,"K: Lolium multiflorum Lam., herbicidal effect (criteria 0-5)",[12],5 (Herbicidal ratio of 90% or more (almost completely withered))
same,"L: Apera spica-venti, herbicidal effect (criteria 0-5)",[13],5 (Herbicidal ratio of 90% or more (almost completely withered))
same,"O: Chenopodium album, herbicidal effect (criteria 0-5)",[14],1 (Herbicidal ratio of 5% or higher and lower than 20%)
same,"P: Stellaria media, herbicidal effect (criteria 0-5)",[15],0 (Herbicidal ratio of 5% or lower (almost no effect))
same,"c: corn, effect on crop (criteria 0-5)",[16],5 (Herbicidal ratio of 90% or more (almost completely withered))
same,"b: directly sowed rice plant, effect on crop (criteria 0-5)",[17],5 (Herbicidal ratio of 90% or more (almost completely withered))
CON=C(C)CC1CC(OC(=O)COc2ccc(C(C)=O)cc2)=C(c2c(C)cc(C)cc2C)C1=O (stereo not shown) [1-080],"herbicidal effect on H (Echinochloa crus-galli var. crus-galli), grade 0-5",[1],5 (Herbicidal ratio of 90% or more (almost completely withered))
same,"effect on crop b (directly sowed rice plant), grade 0-5",[2],5 (Herbicidal ratio of 90% or more (almost completely withered))
same,"G: Setaria viridis, herbicidal effect grade",[3],5 (Herbicidal ratio of 90% or more (almost completely withered))
same,"L: Apera spica-venti, herbicidal effect grade",[4],5 (Herbicidal ratio of 90% or more (almost completely withered))
same,"P: Stellaria media, herbicidal effect grade",[5],0 (Herbicidal ratio of 5% or lower (almost no effect))
same,"d: soybean, effect grade on crop",[6],1 (Herbicidal ratio of 5% or higher and lower than 20%)
same,"e: wheat, effect grade on crop",[7],4 (Herbicidal ratio of 70% or higher and lower than 90%)
same,"g: rapeseed, effect grade on crop",[8],4 (Herbicidal ratio of 70% or higher and lower than 90%)
same,"F: Digitaria ciliaris, herbicidal effect (criteria 0-5)",[9],5 (Herbicidal ratio of 90% or more (almost completely withered))
same,"I: Avena fatua, herbicidal effect (criteria 0-5)",[10],5 (Herbicidal ratio of 90% or more (almost completely withered))
same,"J: Alopecurus myosuroides, herbicidal effect (criteria 0-5)",[11],5 (Herbicidal ratio of 90% or more (almost completely withered))
same,"K: Lolium multiflorum Lam., herbicidal effect (criteria 0-5)",[12],5 (Herbicidal ratio of 90% or more (almost completely withered))
same,"L: Apera spica-venti, herbicidal effect (criteria 0-5)",[13],5 (Herbicidal ratio of 90% or more (almost completely withered))
same,"O: Chenopodium album, herbicidal effect (criteria 0-5)",[14],3 (Herbicidal ratio of 40% or higher and lower than 70%)
same,"P: Stellaria media, herbicidal effect (criteria 0-5)",[15],0 (Herbicidal ratio of 5% or lower (almost no effect))
same,"c: corn, effect on crop (criteria 0-5)",[16],5 (Herbicidal ratio of 90% or more (almost completely withered))
same,"b: directly sowed rice plant, effect on crop (criteria 0-5)",[17],5 (Herbicidal ratio of 90% or more (almost completely withered))
CON=C(C)CC1CC(OC(=O)COc2ccc(C)cc2)=C(c2c(C)cc(C)cc2C)C1=O (stereo not shown) [1-072],"herbicidal effect on H (Echinochloa crus-galli var. crus-galli), grade 0-5",[1],4 (Herbicidal ratio of 70% or higher and lower than 90%)
same,"effect on crop b (directly sowed rice plant), grade 0-5",[2],5 (Herbicidal ratio of 90% or more (almost completely withered))
same,G (Setaria viridis) herbicidal effect grade,[3]; [18],5 (Herbicidal ratio of 90% or more (almost completely withered))
same,L (Apera spica-venti) herbicidal effect grade,[4]; [18],5 (Herbicidal ratio of 90% or more (almost completely withered))
same,P (Stellaria media) herbicidal effect grade,[5]; [18],0 (Herbicidal ratio of 5% or lower (almost no effect))
same,d (soybean) effect on crop grade,[6]; [18],0 (Herbicidal ratio of 5% or lower (almost no effect))
same,e (wheat) effect on crop grade,[7]; [18],4 (Herbicidal ratio of 70% or higher and lower than 90%)
same,g (rapeseed) effect on crop grade,[8]; [18],4 (Herbicidal ratio of 70% or higher and lower than 90%)
same,"F: Digitaria ciliaris, herbicidal effect grade",[9],5 (Herbicidal ratio of 90% or more (almost completely withered))
same,"I: Avena fatua, herbicidal effect grade",[10],5 (Herbicidal ratio of 90% or more (almost completely withered))
same,"J: Alopecurus myosuroides, herbicidal effect grade",[11],5 (Herbicidal ratio of 90% or more (almost completely withered))
same,"K: Lolium multiflorum Lam., herbicidal effect grade",[12],5 (Herbicidal ratio of 90% or more (almost completely withered))
same,"L: Apera spica-venti, herbicidal effect grade",[13],5 (Herbicidal ratio of 90% or more (almost completely withered))
same,"O: Chenopodium album, herbicidal effect grade",[14],1 (Herbicidal ratio of 5% or higher and lower than 20%)
same,"P: Stellaria media, herbicidal effect grade",[15],2 (Herbicidal ratio of 20% or higher and lower than 40%)
same,"c: corn, effect on crop grade",[16],5 (Herbicidal ratio of 90% or more (almost completely withered))
same,"b: directly sowed rice plant, effect on crop grade",[17],5 (Herbicidal ratio of 90% or more (almost completely withered))
